Common to all, as to assay type: functional
In test [1] the test system is Enterobacteriaceae. Briefly: Antimicrobial activity against ceftazidime-susceptible Enterobacteriaceae assessed as resistant isolate by broth microdilution method in presence of Tazobactam.
The test system of test [2] is Enterobacteriaceae. Briefly: Antimicrobial activity against ceftazidime non-susceptible Enterobacteriaceae assessed as susceptible isolate by broth microdilution method in presence of Tazobactam.
The subject of test [3] is Escherichia coli. Briefly: Antimicrobial activity against Non-ESBL Escherichia coli assessed as susceptible isolate by broth microdilution method in presence of Tazobactam.
In test [4] the test system is Escherichia coli. Briefly: Antimicrobial activity against ESBL producing Escherichia coli assessed as susceptible isolate by broth microdilution method in presence of Tazobactam.
The subject of test [5] is Escherichia coli. Briefly: Antimicrobial activity against ESBL producing Escherichia coli assessed as intermediate isolate by broth microdilution method in presence of Tazobactam.
The test system of test [6] is Klebsiella pneumoniae. Briefly: Antimicrobial activity against Non-ESBL Klebsiella pneumoniae by broth microdilution method in presence of Tazobactam.
Test [7] has as its system Klebsiella pneumoniae. Briefly: Antimicrobial activity against Non-ESBL Klebsiella pneumoniae assessed as susceptible isolate by broth microdilution method in presence of Tazobactam.
Test [8] concerns Klebsiella pneumoniae. Briefly: Antimicrobial activity against ESBL producing Klebsiella pneumoniae assessed as susceptible isolate by broth microdilution method in presence of Tazobactam.
Test [9] relates to Pseudomonas aeruginosa. Briefly: Antimicrobial activity against Pseudomonas aeruginosa isolated from non-ICU patient assessed as susceptible isolate by broth microdilution method in presence of Tazobactam.
In test [10] the test system is Proteus mirabilis. Briefly: Antimicrobial activity against Non-ESBL Proteus mirabilis assessed as intermediate isolate by broth microdilution method in presence of Tazobactam.
Test [11] relates to Citrobacter. Briefly: Antimicrobial activity against Citrobacter with derepressed AmpC beta-lactamsae assessed as intermediate isolate by broth microdilution method in presence of Tazobactam.
The subject of test [12] is Citrobacter. Briefly: Antimicrobial activity against Citrobacter with derepressed AmpC beta-lactamsae assessed as resistant isolate by broth microdilution method in presence of Tazobactam.
Test [13] deals with Acinetobacter. Briefly: Antimicrobial activity against imipenem non-susceptible Acinetobacter assessed as intermediate isolate by broth microdilution method in presence of Tazobactam.
Test [14] has as its system Proteus mirabilis. Briefly: Antimicrobial activity against ESBL producing Proteus mirabilis assessed as resistant isolate by broth microdilution method.

Each structure is given as a SMILES string.

Turning to `CCN1CCN(C(=O)N[C@@H](C(=O)N[C@@H]2C(=O)N3[C@@H]2SC(C)(C)[C@@H]3C(=O)O)c2ccccc2)C(=O)C1=O` [PIPERACILLIN], the Activity is 1.9% in test [1]; 15.6% in test [2]; 93.6% in test [3]; 53.3% in [4]; 16.7% in test [5]; 95.9% in test [7]. Moreover, the Activity in test [8] came out at 11.4%; in test [9], 87%; in test [10] it was 0.3%; in [11], 29.1%; in [12], 67.3%; in [13], 3.9%. Further, the MIC50 in test [6] was 4 µg/mL. Besides, the MIC90 in test [6] was determined as 16 µg/mL.
`CC(C)(O/N=C(\C(=O)N[C@@H]1C(=O)N2C(C(=O)[O-])=C(C[n+]3ccccc3)CS[C@H]12)c1csc(N)n1)C(=O)O` [CEFTAZIDIME]: the Activity in test [14] worked out at 0%.
